# Measurements taken from patent US20160220489A1, “Intranasal Formulation for the Treatment of Cardiopulmonary Resuscitation (CPR), Cardiac Life Support (CLS), Anaphylaxis and/or Anaphylactoid Reactions” (G2B Pharma Inc., priority 2013, published 2016).
# Counter-ions that a name gives are not always drawn. Like-named read-outs stand apart in the source and are kept apart here.
# Legend:
# MUS = conditions: in vivo; cited from earlier work
# [1] = cited from earlier work
# [2] = Source text: Unless otherwise indicated, “primary particle diameter” can refer to the particle size distribution of a powder in its non-aggregated state. Primary particle diameter can be determined using a laser-diffraction particle size distribution analyzer. In some embodiments, the particle size analyzer can be Mastersizer 2000 manufactured by Malvern Instruments Limited.
# Unless otherwise indicated, “median diameter” can refer to a diameter that divides particles into two groups of equal numbers: a group with greater diameters and a group with smaller diameters. A median diameter can be determined using a laser-diffraction particle size distribution analyzer and can correspond to 50% volume in a determined cumulative particle size distribution curve. In some embodiments, the particle size analyzer can be Mastersizer 2000 manufactured by Malvern Instruments Limited.
# Data Handling • 1. Using Mastersizer 2000 software, combine particle size distribution data obtained for each dispersion pressure. • 2. If necessary, conduct particle size analysis using Wet Dispersion Method. • 3. Choose the optimum dispersion pressure.
# rabbits = conditions: inhalation in rabbits; cited from earlier work
# [3] = nasal spray, loading dose 5 mg, normal human subjects; cited from earlier work
# rats = conditions: intramuscular administration in rats; cited from earlier work
# [4] = Dry Dispersion Method, dispersion air pressure 0.5 bar
# [5] = Dry Dispersion Method, dispersion air pressure 1.0 bar
# [6] = Dry Dispersion Method, dispersion air pressure 2.0 bar
# [7] = Dry Dispersion Method, dispersion air pressure 3.0 bar
# [8] = Dry Dispersion Method, dispersion air pressure 4.0 bar
compound,measurement,setting,value
Cc1ccc(N(CC2=NCCN2)c2cccc(O)c2)cc1 [phentolamine],IVN-MUS LD50,MUS,75 mg/kg
"C[C@H](CCC(=O)NCCS(=O)(=O)O)[C@H]1CC[C@H]2[C@@H]3CC[C@@H]4C[C@H](O)CC[C@]4(C)[C@H]3C[C@H](O)[C@]12C [bile salts, taurodeoxycholic acid]",nasal mucosal tissue damage,[1]; used as mucosal permeation enhancers (1% taurodeoxycholic acid),severe nasal mucosal tissue damage
CNC[C@H](O)c1ccc(O)c(O)c1 [epinephrine],Volume under 10%,[2]; [4],17.8 μm
same,Volume under 50%,[2]; [4],29.1 μm
same,Volume under 90%,[2]; [4],45.9 μm
same,Volume under 10%,[2]; [5],15.5 μm
same,Volume under 50%,[2]; [5],27.2 μm
same,Volume under 90%,[2]; [5],43.6 μm
same,Volume under 10%,[2]; [6],4.8 μm
same,Volume under 50%,[2]; [6],22.6 μm
same,Volume under 90%,[2]; [6],41.8 μm
same,Volume under 10%,[2]; [7],2.7 μm
same,Volume under 50%,[2]; [7],18.8 μm
same,Volume under 90%,[2]; [7],38.6 μm
same,Volume under 10%,[2]; [8],2.4 μm
same,Volume under 50%,[2]; [8],18.2 μm
same,Volume under 90%,[2]; [8],38.3 μm
same,Volume under 10%,[2]; Wet Dispersion Method,18.1 μm
same,Volume under 50%,[2]; Wet Dispersion Method,31.2 μm
same,Volume under 90%,[2]; Wet Dispersion Method,50.7 μm
same,LD50,rabbits,2.5 mg/kg
same,greatest epinephrine plasma concentrations,"[1]; intranasal 7.5 mg/kg/nostril of epinephrine after […] of phentolamine, dog","~1,400 ng/mL"
same,Tmax (peak plasma concentration reached),[3],1.17 ± 0.283 h
same,LD50,rats,3500 mg/kg
